One compound from PMC10892288, “Early Stage Preclinical Formulation Strategies to Alter the Pharmacokinetic Profile of Two Small Molecule Therapeutics” (Pharmaceuticals, 2024) can be followed below.

Data set [1] in a line: Water solubility (physiochemical properties). It is filed as physicochemical.
Data set [2] is described as follows: Log P (physiochemical properties). It is filed as physicochemical.
The nature of data set [3]: pKa (physiochemical properties). It is filed as physicochemical. An excerpt:
Table 1 Physiochemical properties of […] and […]. | column: […]; […]

The nature of data set [4]: Permeability (physiochemical properties). It is filed as in vitro ADME.
In the next data set the target is HPK1 (Homo sapiens, UniProt Q92918). The data set can be described thus: Potency (IC50) of HPK1 inhibitor.
A short description of data set [5]: Mouse PK of G6893, PO in MCT vehicle. Particulars: female, C57BL-6, plasma, 30 mg/kg, PO 30 mpk, MCT vehicle pH 2.5, mouse. It is filed as in vivo, female C57BL-6 mice. As to the method:
A total of 0.6% w/v Methylcellulose, 0.2% w/v Tween 80 in water (MCT) was prepared by slowly adding Methylcellulose (Methylocel A15 LV; CAS 9004-67-5, Part ID: 64605-500G-F 27.5-31.5% Methoxyl basis, Sigma-Aldrich, St. Louis, MO, USA) in small portions to prevent clumping while stirring into water at 70–80 °C. Once a homogeneous suspension formed, Tween 80 (Polysorbate 80; CAS#9005-65-6 (Polyoxyethylene (20) Sorbitan Monooleate; Tween 80) Part ID: PO138, Spectrum Chemical, New Brunswick, NJ, USA) was added and stirred until fully dissolved. Vehicle was filtered through 0.22 µm PES (Corning REF no. 431098) prior to adding to the compound for dosing. Respective compound was added based on the target concentration to the MCT vehicle and stirred at 35 °C until the power was well-dispersed. Formulations were homogenized through a polytron homogenizer and then sonicated in a water bath sonicator until a homogeneous suspension was achieved.
The pharmacokinetics of G7883 were determined in female CD-1 mice obtained from Charles River Laboratories (Hollister, CA, USA) with a body weight ranging from 20 to 25 g. The pharmacokinetics of G6893 were determined in female C57BL-6 mice (Lingchang/Vital River Laboratory Animal Co., Ltd., Shanghai/Beijing, China) with a body weight ranging from 20 to 35 g. Three mice were given an oral dose of G7883 formulated in 0.6% Methylcellulose, 0.2% Tween80 in water (MCT) at 25 mg/kg and 250 mg/kg with a dosing volume of 10 mL/kg. Food and water were available ad libitum to the animals. Three mice were given an oral dose of G6893 formulated in 0.6% methylcellulose; 0.2% Tween80 in water with pH adjusted to 2.5 at 30 mg/kg and a dose volume of 5 mL/kg. For both compounds, G7883 and G6893, 15 µL of blood was collected serially at 0. 25, 0.5, 1, 2, 4, 6, 8, and 24 h post-dose and diluted in 60 µL of 1.7 mg/mL potassium K2EDTA water. The frozen blood samples were stored at −70 °C or lower until analysis.
All plasma and cell media concentrations of G7883 and G6893 were determined using liquid chromatography–tandem mass spectrometry after protein precipitation with acetonitrile and injection of the supernatant onto the column (Waters ACQUITY UPLC BEH C18 1.7 μm, 2.1 × 50 mm for G7883 and G6893). The aqueous mobile phase was 0.1% formic acid, 2 mM ammonium formate in water/acetonitrile (v:v, 95:5), and the organic mobile phase was 0.1% formic acid, 2 mM ammonium formate in acetonitrile/water (v:v, 95:5). An AB Sciex API 4000 Triple Quad instrument was used for detecting G7883 and G6893 (Figure S2). The electrospray ionization source in both columns was operated in the positive ion and multiple reaction monitoring (MRM) detection modes. The MRM transitions for G7883 and G6893 were m/z 462.2 (Q1) and 253.10 (Q3) and m/z 454.2 (Q1) and 325.9 (Q3), respectively. The dynamic range of both assays was 0.50–50.0 ng/mL, and the total run time was 1.6 min. The lower limit of quantitation of the assay was […], and the dilution quality control concentration was set at 10 ng/mL with acceptance criteria for accuracy and precision of 25%.

A short description of data set [6]: Mouse IV infusion of G6893 by iPRECIO pump. Conditions: 0.5 mg/kg/h, 2.5 mg/mL in 100% PEG400, over 96 h. It is filed as in vivo, female C57BL-6 mice. An excerpt: This is often a concern for molecules in early drug discovery stages. Various formulation and delivery strategies have been devised to modify the systemic PK profiles of drug molecules, encompassing nanoparticles, microparticles, lipid and polymer conjugation, implanted infusion pump device technologies, and subcutaneous depots. Here, we examined two strategies aimed at maintaining the drug concentration at a designed target concentration for the maximum duration potentially needed for proof of concept studies. The initial approach involved using an implantable device, the iPRECIO pump that allows for a controlled and sustained infusion, as opposed to a typical bolus IV injection. The infusion pump strategies can be a promising tool to achieve the desired delivery profile of a compound, given the solubility requirements based on the intended target release and PK profile. […]
All plasma and cell media concentrations of G7883 and G6893 were determined using liquid chromatography–tandem mass spectrometry after protein precipitation with acetonitrile and injection of the supernatant onto the column (Waters ACQUITY UPLC BEH C18 1.7 μm, 2.1 × 50 mm for G7883 and G6893). […] The lower limit of quantitation of the assay was 5.1 ng/mL, and the dilution quality control concentration was set at 10 ng/mL with acceptance criteria for accuracy and precision of 25%.

Data set [7] can be described thus: Vehicle screening for solution or suspension formulations. Conditions: 100% PEG400. It counts as physicochemical. The procedure:
Based on the target concentration, G7883 was screened at 3.3 mg/mL in three different vehicles of 100%PEG400, 10%DMSO in 90%PEG400, and 20%DMSO in 80%PEG400 to generate a stable solution. […] A total of 50% DMSO is the maximum amount compatible with the iPRECIO pump system. Based on the target concentration, G6893 was screened at 5 mg/mL in four different vehicles as follows: 100% PEG400, 20% DMSO in 80% PEG400, 20% DMA and 40% PG in 40% PEG400, and 10% EtOH and 20% HPbCD in 70% water at pH 4.5. G6893 achieved a solution at the target concentration of 5 mg/mL in 100% PEG400 and maintained a solution without precipitation after dilution in PBS buffer.
G7883 was screened in different oil vehicles including corn, coconut, paraffin, soybean, and sunflower oil.

HPK1, sequence (Q92918 whole entry, species assumed): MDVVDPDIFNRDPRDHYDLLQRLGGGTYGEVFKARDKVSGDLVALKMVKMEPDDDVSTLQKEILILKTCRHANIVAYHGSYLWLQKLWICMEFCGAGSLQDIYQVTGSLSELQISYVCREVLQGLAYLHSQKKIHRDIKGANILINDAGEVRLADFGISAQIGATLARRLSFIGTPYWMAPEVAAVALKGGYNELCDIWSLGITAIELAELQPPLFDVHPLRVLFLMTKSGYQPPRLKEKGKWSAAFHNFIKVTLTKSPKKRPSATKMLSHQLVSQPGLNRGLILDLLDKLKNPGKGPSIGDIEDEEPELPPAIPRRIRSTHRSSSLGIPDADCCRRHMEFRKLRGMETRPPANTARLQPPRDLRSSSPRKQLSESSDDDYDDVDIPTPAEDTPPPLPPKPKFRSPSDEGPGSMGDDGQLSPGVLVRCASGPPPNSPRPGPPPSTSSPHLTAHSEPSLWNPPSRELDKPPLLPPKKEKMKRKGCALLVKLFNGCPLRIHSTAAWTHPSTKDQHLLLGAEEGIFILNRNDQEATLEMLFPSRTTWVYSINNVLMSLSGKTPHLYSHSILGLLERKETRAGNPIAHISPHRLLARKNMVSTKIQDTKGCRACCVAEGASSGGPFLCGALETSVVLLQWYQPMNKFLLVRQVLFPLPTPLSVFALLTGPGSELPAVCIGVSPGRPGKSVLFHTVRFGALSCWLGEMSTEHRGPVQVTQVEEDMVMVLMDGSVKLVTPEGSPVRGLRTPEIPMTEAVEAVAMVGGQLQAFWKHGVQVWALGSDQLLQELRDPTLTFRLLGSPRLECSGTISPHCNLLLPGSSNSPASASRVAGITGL

The solubility is the dissolved amount per volume that the medium holds. What is called logP is the decadic logarithm of the partition coefficient of the neutral form, usually between octanol and water. Read a low logP as lower lipophilicity. Broadly, the pKa is the negative logarithm of the acid dissociation constant. A high value points to a weaker acid or stronger base. One may read the Papp as the rate of passage across a membrane or cell layer, normalised by area and donor concentration. A low value points to poor permeation. By IC50 is commonly meant the midpoint of a concentration-inhibition curve. A high value points to lower potency. For orientation: Cmax means the highest concentration seen after dosing. For orientation: Tmax means the time from dosing to the highest level. In general, bioavailability refers to the share of a dose that reaches the circulation, judged against a reference dose that is usually intravenous. Lower therefore signals poor availability. The term half-life denotes the time in which the quantity being followed falls by half. Read a high half-life as slow decline. Regarding `Cc1c(-c2cc3cc(NC(=O)O[C@H]4COC[C@@H]4C)ncc3c(N)c2F)cnc2c1NCCO2` (racemic) [G6893, [rac-(3R,4S)-4-methyltetra hydrofuran-3-yl]N-[8-amino-7-fluoro-6-(8-methyl-2,3-dihydro-1H-pyrido[2,3-b][1,4]oxazin-7-yl)-3-isoquinolyl]carbamate], the “solubility (in words)” value in data set [1] is “low solubility”. In addition, in data set [1] (water), the solubility is below 1 µg/mL. For the same compound, the logP in data set [2] was 2.69. This compound also had a pKa in data set [3] of 2.53. Besides, in data set [4], the “permeability (in words)” value is listed as “high permeability”. This compound also yielded a Papp in data set [4] (not told) of 15 ×10⁻⁶ cm/s. This compound also gave a concentration for half-maximal inhibition (IC50) against HPK1 of 0.56 µM. For the same compound, in data set [5] (mean ± SD), the peak concentration (Cmax) is 3.8 ± 1.68 µM, the Tmax amounted to 0.667 ± 0.289 h, the bioavailability was found to be 45.5 ± 14% and the half-life was 3.07 ± 1.92 h. Further, in data set [5] (read-out: AUC0 to 8), the AUC(0-t) amounted to 19.5 µM·h. In data set [6], the “plasma concentration relative to target concentration (IC50)” value is “successfully maintained the target concentration profile”. For the same compound, in data set [7], the “concentration at which a solution was achieved” value is at least 5000 µg/mL.
